# Test results taken from paper PMC8746441, “Design, Synthesis and Preclinical Assessment of ^99mTc-iFAP for In Vivo Fibroblast Activation Protein (FAP) Imaging” (Molecules, 2022).
# Key:
# [1] = Human serum stability and protein binding (size-exclusion radio-HPLC); assay type: in vitro ADME
# Procedure: The ^99mTc-iFAP (37 MBq, 100 µL, 14 nmol) was incubated at 37 °C with 500 µL of human serum (IST-909c certified human serum sample, Sigma-Aldrich) and diluted in 0.5 mL of a 0.9% NaCl solution. Twenty microliters of the mixture were sampled at 30 min, 3 and 24 h for size-exclusion radio-HPLC analysis using a ProteinPak 300SW Waters column and 0.01M PBS as the mobile phase (1 mL/min). The percentage of recovery (quantification of the radioactivity recovered from the HPLC column) was determined by injecting 20 µL of the ^99mTc-iFAP sample into the HPLC system and 20 µL into a 50 mL volumetric flask, which was filled with 0.01 M PBS (flask 1). The column was eluted with 0.01 M PBS for 50 min (1 mL/min) and the effluent was collected in a 50 mL volumetric flask (flask 2). Aliquots of 1 mL from both flask 1 and flask 2 were measured on an HPGe detector (ORTEC). The percentage of recovery was calculated by dividing the counts in flask 2 by the counts in flask 1 then multiplied by 100.
# [2] = system: mice with induced Hep-G2 tumors; assay: Biodistribution and biokinetic models in tumor-bearing mice; assay type: in vivo; conditions: for Biodistribution, Blood / Biodistribution, Bone / Biodistribution, Heart / Biodistribution, Tumor / Biodistribution, Intestine / Biodistribution, Kidneys / Biodistribution, Liver / Biodistribution, Lung / Biodistribution, Muscle (left thigh) / Biodistribution, Pancreas / Biodistribution, Spleen / Biodistribution, Stomach: i.v.
# Procedure: The biodistribution studies in Balb-c male mice were carried out in agreement with Official Mexican Norm 062-ZOO-1999. Hep-G2 tumors were induced in mice (n = 15) by subcutaneous injection (right thigh; positive control) of 1 × 10^6 cells suspended in 0.2 mL of phosphate-buffered saline. Killed Klebsiella pneumoniae bacteria (heated for 2 h at […] and verified for absence of growth after culturing), aseptically suspended in 0.2 mL of PBS (1 × 10^6 bacteria), were subcutaneously administered into the left thigh of mice in order to induce inflammation (negative control). After the tumor was visible, ^99mTc-iFAP (50 µL, 18 MBq, 7 nmol of iFAP) was administered intravenously into the tail of each mouse. Three mice were selected for micro-SPECT/CT imaging, whereas the rest were sacrificed to be used in the biodistribution study. The times of evaluation were 15 min, 30 min, 2 h and 24 h. After the mice were sacrificed, the blood and main organs were removed, weighted and their radioactivity measured using a […] detector, in order to calculate the percentage of the injected dose per gram of tissue (%ID/g) by using an initial standard volume (100% of the initial injected activity). Biokinetic models of the four main target tissues/organs (blood, tumor, liver and kidneys) were obtained by fitting ^99mTc-iFAP time-activity curves to functions with two or three exponential terms Equation (2):(2) A(t)=Ae^−at+Be^−bt+Ce^−ct
# [3] = system: N30 (primary human stromal endometrial cells, FAP positive); assay: Cellular uptake and internalization; assay type: cell-based; conditions: 1 h, 37 °C
# Procedure: The ^99mTc-iFAP uptake and internalization by N30 (FAP +) and fibroblast (FAP −) cells were determined by using 4 × 10^5 cells/500 µL of PBS in test tubes (n = 6). Both cells lines were incubated for 1 h at 37 °C with 10 µL of ^99mTc-iFAP (37 kBq, 0.4 nmol iFAP). After incubation, three washes with 500 µL of PBS were performed by centrifugation (700 g/5 min). By using a crystal scintillation (NaI(Tl)) well-type detector (MNL Inc., Littleton, CO, USA), the radioactivity in the cell pellet was evaluated. A standard volume with the initial activity was used to represent 100%, and the cell uptake activity was assessed with regard to this value. For the evaluation of internalization, the cell pellets were treated at 37 °C for 5 min with 500 µL of an acid glycine solution (0.1 M glycine, pH adjusted to 2.8 with HCl), and centrifuged (700 g/5 min). The cell pellet was incubated with 1 M NaOH for 5 min and centrifuged (700 g/5 min). The radioactivity of the supernatant was calculated as the percentage of internalization with regard to the initial activity of the standard volume as mentioned above.
# [4] = system: tumor microenvironment of different types of cancer; assay: Preliminary clinical SPECT/CT imaging studies; assay type: in vivo; conditions: preliminary clinical studies in progress, breast, lung, colorectal, gliomas, cervical cancer
# [5] = system: nude mice with induced Hep-G2 lesions; assay: Micro-SPECT/CT imaging and tumor SUV; conditions: for tumor SUVmax, the mouse shown in Figure 7: one nude mouse; for tumor SUVmax, the mouse shown in Figure 7 / tumor SUVmax: right thigh; for tumor SUVmax: Hep-G2 tumor
# Procedure: Hep-G2 tumors were induced in mice (n = 15) by subcutaneous injection (right thigh; positive control) of 1 × 10^6 cells suspended in 0.2 mL of phosphate-buffered saline. Killed Klebsiella pneumoniae bacteria (heated for 2 h at 1000 °C and verified for absence of growth after culturing), aseptically suspended in 0.2 mL of PBS (1 × 10^6 bacteria), were subcutaneously administered into the left thigh of mice in order to induce inflammation (negative control). After the tumor was visible, ^99mTc-iFAP (50 µL, 18 MBq, 7 nmol of iFAP) was administered intravenously into the tail of each mouse. Three mice were selected for micro-SPECT/CT imaging, whereas the rest were sacrificed to be used in the biodistribution study. […] After the mice were sacrificed, the blood and main organs were removed, weighted and their radioactivity measured using a Na(Tl) detector, in order to calculate the percentage of the injected dose per gram of tissue (%ID/g) by using an initial standard volume (100% of the initial injected activity). Biokinetic models of the four main target tissues/organs (blood, tumor, liver and kidneys) were obtained by fitting ^99mTc-iFAP time-activity curves to functions with two or three exponential terms Equation (2):(2) A(t)=Ae^−at+Be^−bt+Ce^−ct
# [6] = Radiochemical stability of the radiopharmaceutical after labeling (radio-HPLC/ITLC-SG); assay type: physicochemical; conditions: 24 h after labeling
# Procedure: For radiolabeling, the lyophilized formulation was reconstituted with 1 mL of a 0.2 M phosphate buffer and 1 mL of ^99mTcO4Na (740–1110MBq). The reaction was incubated in a block heater for 15 min at 92 °C. The radiochemical purity was 98% as determined by radio-HPLC (Discovery C18; 5 μm particle size; L × I.D. 25 cm × 4.6 mm; linear gradient: 0.1% TFA/water (A) and 0.1% TFA/acetonitrile (B) flow rate of 1 mL/min. A-100% for 3 min, changed to A-50% over 10 min and maintained for 10 min, changed A-30% over 3 min and returned to A-100% over 4 min).
# ITLC-SG (instant thin layer chromatography-silica gel) was also carried out for the assessment of ^99mTc-iFAP radiochemical purity. Three mobile phases were used, the 2-butanone phase was employed for the identification of free ^99mTcO4^− (Rf = 1), where ^99mTc-iFAP, ^99mTc-EDDA/tricine and ^99mTc-colloid remained in the origin (Rf = 0); 0.1 M sodium citrate (pH 5) identified free ^99mTcO4 (Rf = 1) and ^99mTc-EDDA/tricine coligands (Rf = 1), where ^99mTc-iFAP and ^99mTc-colloid remained in the origin (Rf = 0); finally, the third phase was used for the determination of ^99mTc-colloid (Rf = 0) and consisted of ammonium acetate-methanol (1:1 v/v) ( ^99mTcO4^−, ^99mTc-iFAP and ^99mTc-EDDA run with the solvent front; Rf = 1).
# [7] = system: healthy laboratory Balb-C mice; assay: Adverse effects of the cold ligand; assay type: in vivo; conditions: dose of 40 mg/kg
compound,measurement,setting,value
^99mTc-((R)-1-((6-hydrazinylnicotinoyl)-D-alanyl) pyrrolidin-2-yl) boronic acid [^99mTc-iFAP],stability in fresh human serum,"[1]; 30 min, 3 h and 24 h, 37 °C",remained stable
same,99mTc-colloid as activity retained in the column,"[1]; from percentage of recovered activity, size-exclusion HPLC",0.2%
same,transchelation of 99mTc to cysteine,"[1]; human serum, 37 °C",does not occur
same,serum protein binding,"[1]; human serum, 37 °C, 30 min",0.3 ± 0.1%
same,serum protein binding,"[1]; human serum, 37 °C, 3 h",0.9 ± 0.2%
same,radiochemical stability in human serum,"[1]; human serum, 37 °C, 24 h",> 95%
same,serum protein binding,"[1]; human serum, 37 °C, 24 h",2.1 ± 0.3%
same,"Biodistribution, Blood",[2]; 15 min,2.07 ± 0.63 %ID/g
same,"Biodistribution, Blood",[2]; 30 min,1.02 ± 0.32 %ID/g
same,"Biodistribution, Blood",[2]; 2 h,0.33 ± 0.05 %ID/g
same,"Biodistribution, Blood",[2]; 24 h,0.01 ± 0.01 %ID/g
same,"Biodistribution, Bone",[2]; 15 min,0.20 ± 0.09 %ID/g
same,"Biodistribution, Bone",[2]; 30 min,0.14 ± 0.06 %ID/g
same,"Biodistribution, Bone",[2]; 2 h,0.13 ± 0.02 %ID/g
same,"Biodistribution, Heart",[2]; 15 min,1.75 ± 0.08 %ID/g
same,"Biodistribution, Heart",[2]; 30 min,0.88 ± 0.23 %ID/g
same,"Biodistribution, Heart",[2]; 2 h,0.19 ± 0.03 %ID/g
same,"Biodistribution, Tumor","[2]; Hep-G2 tumor, 15 min",9.87 ± 1.94 %ID/g
same,"Biodistribution, Tumor","[2]; Hep-G2 tumor, 30 min",7.05 ± 1.13 %ID/g
same,"Biodistribution, Tumor","[2]; Hep-G2 tumor, 2 h",5.18 ± 0.82 %ID/g
same,"Biodistribution, Tumor","[2]; Hep-G2 tumor, 24 h",2.37 ± 0.26 %ID/g
same,tumor fast elimination constant (λeff),"[2]; Hep-G2 tumor, biokinetic model",0.41 h⁻¹
same,tumor slow elimination constant (λeff),"[2]; Hep-G2 tumor, biokinetic model",0.12 h⁻¹
same,"Biodistribution, Intestine",[2]; 15 min,1.42 ± 0.74 %ID/g
same,"Biodistribution, Intestine",[2]; 30 min,0.93 ± 0.14 %ID/g
same,"Biodistribution, Intestine",[2]; 2 h,0.22 ± 0.10 %ID/g
same,"Biodistribution, Kidneys",[2]; 15 min,13.85 ± 2.27 %ID/g
same,"Biodistribution, Kidneys",[2]; 30 min,11.18 ± 1.54 %ID/g
same,"Biodistribution, Kidneys",[2]; 2 h,7.46 ± 1.02 %ID/g
same,"Biodistribution, Kidneys",[2]; 24 h,1.89 ± 0.53 %ID/g
same,"Biodistribution, Liver",[2]; 15 min,2.78 ± 0.42 %ID/g
same,"Biodistribution, Liver",[2]; 30 min,2.14 ± 0.51 %ID/g
same,"Biodistribution, Liver",[2]; 2 h,1.05 ± 0.29 %ID/g
same,"Biodistribution, Liver",[2]; 24 h,0.05 ± 0.03 %ID/g
same,"Biodistribution, Lung",[2]; 15 min,1.11 ± 0.51 %ID/g
same,"Biodistribution, Lung",[2]; 30 min,0.65 ± 0.19 %ID/g
same,"Biodistribution, Lung",[2]; 2 h,0.02 ± 0.01 %ID/g
same,"Biodistribution, Muscle (left thigh)",[2]; 15 min,0.39 ± 0.15 %ID/g
same,"Biodistribution, Muscle (left thigh)",[2]; 30 min,0.31 ± 0.11 %ID/g
same,"Biodistribution, Muscle (left thigh)",[2]; 2 h,0.18 ± 0.06 %ID/g
same,"Biodistribution, Pancreas",[2]; 15 min,0.64 ± 0.10 %ID/g
same,"Biodistribution, Pancreas",[2]; 30 min,0.31 ± 0.12 %ID/g
same,"Biodistribution, Pancreas",[2]; 2 h,0.12 ± 0.04 %ID/g
same,"Biodistribution, Spleen",[2]; 15 min,1.07 ± 0.17 %ID/g
same,"Biodistribution, Spleen",[2]; 30 min,0.82 ± 0.04 %ID/g
same,"Biodistribution, Spleen",[2]; 2 h,0.15 ± 0.05 %ID/g
same,"Biodistribution, Stomach",[2]; 15 min,0.71 ± 0.08 %ID/g
same,"Biodistribution, Stomach",[2]; 30 min,0.39 ± 0.12 %ID/g
same,"Biodistribution, Stomach",[2]; 2 h,0.25 ± 0.03 %ID/g
same,"fraction of radiotracer eliminated from blood, fast phase","[2]; blood, biokinetic model, fast",88.6%
same,"fraction of radiotracer eliminated from blood, slow phase","[2]; blood, biokinetic model, slow",11.4%
same,blood half-life (slow),"[2]; blood, t1/2 = ln2/0.27",154 min
same,blood half-life (fast),"[2]; blood, t1/2 = ln2/2.93",14.4 min
same,"kidney half-life, second phase","[2]; kidneys, t1/2 = ln2/1.54",27 min
same,kidney half-life (fast),"[2]; kidneys, t1/2 = ln2/2.71",15.6 min
same,"fraction of activity eliminated from kidneys, fast phase","[2]; kidneys, triexponential model, fast",49.4%
same,"fraction of activity eliminated from kidneys, second phase","[2]; kidneys, triexponential model, second phase",6.3%
same,"fraction of activity eliminated from kidneys, slow phase","[2]; kidneys, triexponential model, slow",44.3%
same,internalization rate in N30 cells,[3],rather low
same,cellular uptake in N30 compared to fibroblasts,"[3]; human fibroblasts FAP negative control, p < 0.05, n = 6",increased
same,sensitivity to detect the tumor microenvironment,[4],high sensitivity
same,"tumor SUVmax, the mouse shown in Figure 7",[5]; 30 min,5.6
same,tumor SUVmax,[5]; 30 min after administration,5.0 ± 1.2
same,"tumor SUVmax, the mouse shown in Figure 7",[5]; 24 h,2.4
same,tumor SUVmax,[5]; 24 h after administration,2.7 ± 0.6
same,radiotracer uptake in left thigh with inflammation induced by killed bacteria (negative control),"[5]; micro-SPECT/CT, left thigh",no radiotracer uptake was observed
same,radiochemical purity after 24 h of labeling,[6],greater than 97%
"C[C@@H](NC(=O)c1ccc(NN)nc1)C(=O)N1CCC[C@H]1B(O)O [iFAP, ((R)-1-((6-hydrazinylnicotinoyl)-D-alanyl)pyrrolidin-2-yl) boronic acid]",adverse effects,[7],did not show adverse effects
